# Data reported in patent US10028971B2, “Compositions and methods for treating psychiatric disorders” (GOSFORTH CENTRE (HOLDINGS) PTY LTD., priority 2008, dated 2018).
# Where two headings read alike, the source gives them in different places.
# Key:
# [1] = test system: individuals with MCI or dementia; test: Mild cognitive impairment and dementia, clinical cases (Developmental Eye Movement test, Alzheimer's Quick Test); format: in vivo, human; conditions: person
# Text: A married person with a history of good cognitive functioning until last 4-5 yrs when noted by both their spouse and themself to becoming increasingly socially withdrawn primarily because of the difficulty in listening without distraction during social interaction, no known childhood or adult history of prior attentional or impulsive disorders. It has been clinically observed by the inventor that individuals treated with low dose antiepileptic were enhanced in their ability to discriminate irrelevant from the relevant sound was enhanced. […] On ceasing the medication there was an initial improvement again over the preceding 3 to 7 days followed by a loss of the therapeutic effects and returned to their pre-medication function. On the ressumption of the 12.5 mg phenytoin there was a return of the improved function. On this second occasion they were more aware of the benefits and also the gradual return of the detrimental clinic effects. During the clinical assessment it was noted that they had more flexibility in their conversation and more natural use of non-verbal cues, there was also enhancement of their egocentric gaze. […] These benefits were also noted by their spouse. […] Again these medications were ceased resulting in a loss of associated benefits. With each trial of medication they became more apparent to the patient and their spouse of the benefits of the therapy. They attempted whilst not taking the medication to communicate and follow the conversation in a way that they had been able to whilst on treatment. They found when attempting to do so they became mentally exhausted and unable to sustain the effort required for the interaction. The improvements noted clinically and also recorded using the Developmental Eye Movement test and a measure of parietal function the Alzheimer's Quick Test. Married person diagnosed with fronto-temporal dementia. they had been assessed by neuropsychologist, and geriatrician and psychiatrist to confirm this diagnosis. […] They then relied on others to make decisions for […]. They had gradually become socially disengaged finding such interactions distressing and demanding. […] Despite ongoing difficulties of word finding they were able to socially interact more spontaneously than they had done for many years. And have confidence in areas of conversation that they previously would have avoided. […] On two occasions the medication was withdrawn and then reintroduced, due to the experimental nature of treatment and concern that there might be a significant placebo effect. […] Following the subsequent reduction there was a return of the improvement previously noted.
# [2] = test system: individuals with dysthymia; test: Treatment of dysthymia, clinical observation; format: in vivo, human; conditions: person, PTSD, treated ADHD, sodium valproate 100 mg a day
# Text: The inventor has noted in the clinical setting that individuals suffering with symptoms consistent with a diagnosis of dysthymia, experience a significant abatement from their negative and sometimes intrusive thought patterns on commencement of a low dose anti-epileptic drug. The inventor has also noted in the clinic that the beneficial effects that are noted on commencement of this combination can be further enhanced synergistically, by the use of a psycho-stimulant. These individuals may or may not meet the full criteria for a DSM IV diagnosis consistent with ADHD.
# A number of individuals with symptoms of dysthymia report that the depression has been present since adolescence, and finally present in the clinic, after an acute major depressive episode. They are able to achieve a partial resolution from the symptoms of depression with appropriate pharmacological and psychological treatment. Unfortunately, their negative thought patterns are more persistent and can be misinterpreted as a failure to adequately respond to antidepressant therapy. In actuality these symptoms predate the acute episode, and it is not surprising therefore that they don't abate following treatment. […] These subsequent outcomes lead to an improvement in general interpersonal functioning, which in itself contributes to psychosocial stability. […]
# [3] = test system: patients with substance addiction; test: Treatment of addictions, clinical observation; format: in vivo, human; conditions: for clinical outcome (case): person
# Text: Addiction to amphetamines poses a number of unique challenges.
# [4] = test system: adherence to medication regime; conditions: person
# Text: As a result, taking medication becomes an automatic activity which doesn't require a high level of attention and motivation.
# The individual experiences an improvement in the ability to efficiently and effectively attend to a task in hand, without also needing to expend extra cognitive effort to remember which medication to take and at what times.
# adults with ADHD = test system: adults with ADHD
# Procedure: In the clinical setting a number of adults with ADHD experienced a combination therapy of stimulant medication (dexamphetamine) in combination with sodium valproate (VPA). The initial dosages used were from 15 to 70 mg/day of dexamphetamine and from 100 to 700 mg/day of VPA (Epilim) (=approximately 2 to 10 mg/kg/day).
# The determination of the dose for the dexamphetamine was undertaken in a clinical sensitive open label manner. The dose was titrated upwards dependent on the clinical response and the freedom from side-effects. The dose range was between 15 and 70 mg a day. The frequency of the dosing also varied dependent upon the clinical response. The usual dose interval was between two to four hours. This dosing adjustment took place prior to the commencement of the sodium valproate. The sodium valproate medication was initiated once a day at 50 mg tablet or elixir and titrated upwards dependent on response, but not more than one increase every three days. The dose was given as a once or twice a day regime. During the titration phase, if clinically possible, no other adjustments to the pharmacotherapy were undertaken.
# [5] = test system: mood stabilisation or epileptic symptoms or events; conditions: adults, cited from earlier work
# [6] = test system: individuals with developmental dyspraxia / poor coordination; test: Treatment of developmental dyspraxia, clinical observation; format: in vivo, human; conditions: person
# Text: Many of the individuals treated at this clinic, with a diagnosis of ADHD and/or pervasive development disorder such Asperger's Syndrome or autism also present with symptoms consistent with a diagnosis of a developmental coordination disorder. They are often described as ‘unco’ (unco-ordinated) by their peers and experience victimization, poor self-esteem and frustration as a consequence of their poor coordination. […] Individuals have described a sense of having more time to coordinate movements and to understand and integrate their own activity appropriately within a team sport such as soccer, which has previously eluded them. Individuals have felt frustration at being able to practise repeatedly an activity or skill only to be unable to put it into practice when required, within the play of a match. It is proposed that individuals were previously unable to process and plan their own coordination but remain aware of the general activity in which they were participating.
compound,measurement,setting,value
"CCCC(CCC)C(=O)O.[Na] [sodium valproate, sodium di-n-propylacetic acid]",clinical outcome (case),[1]; sodium valproate 40 mg,enhanced ability to follow the train of conversation
same,clinical outcome (case),[1]; sodium valproate 80 mg,loss of these benefits
same,clinical outcome (case),[2],could read without distraction
same,clinical outcome (case),"[3]; methamphetamine use, 100 mg/d Valproate with 50 mg/d dexamphetamine",robust improvement in attention and concentration abilities
same,clinical outcome (case),[3]; sodium valproate 50 mg increased to 200 mg with dexamphetamine,reduced dependence on marijuana and ceased alcohol consumption
same,clinical outcome,"[3]; two patients, ADHD and methamphetamine addiction, Valproate 50 to 100 mg/d with 50 mg/d dexamphetamine",responded well
same,clinical outcome (case),"[4]; complex regime, no ADHD, ASD or dementia, Sodium valproate 100 mg added",enhanced ability to track their thoughts with less effort
same,clinical outcome (case),[4]; sodium valproate reduced to 100 mg with dexamphetamine 40 mg,"improved efficacy, cognition, organisation and compliance with medication"
same,clinical outcome (case),"adults with ADHD; adult female, sodium valproate maximum 150 mg added to methylphenidate",Improvement
same,group outcome of combination therapy,"adults with ADHD; adults with ADHD, Methylphenidate 40 mg/d, Valproate 100 mg/d, Phenytoin 50 mg/d",successfully treated
same,clinical assessment under combination therapy,"adults with ADHD; adults with ADHD, Valproate 50-300 mg/d with Dexamphetamine 20-75 mg/d",overall improvement in psychosocial functioning
same,group outcome of combination therapy,"adults with ADHD; adults with ADHD, dexamphetamine 20-45 mg/d, Valproate 100-400 mg/d, Phenytoin 12.5-50 mg/d",successfully treated
same,group outcome of combination therapy,"adults with ADHD; adults with ADHD, median 40 mg/d Dexamphetamine, 120 mg/d Sodium Valproate, 25 mg/d Topiramate",successfully treated
same,group outcome of combination therapy,"adults with ADHD; adults with ADHD, methylphenidate 30-125 mg/d with Valproate 50-200 mg/d",successfully treated
same,effect of higher doses,"adults with ADHD; human, in vivo",general cognitive slowing and the resultant loss of efficacy
same,clinical outcome (case),"adults with ADHD; person, ADHD, anorexia nervosa, borderline personality disorder, sodium valproate 200 mg with dexamphetamine",responded
same,clinical outcome (case),"adults with ADHD; person, ADHD, low dose sodium valproate 50 mg added to psycho stimulant",improvement in their egocentric gaze and improved cognition
same,clinical outcome (case),"adults with ADHD; person, ADHD, sodium valproate 100 mg a day added to dexamphetamine 40 mg",improvement with more organised thoughts
same,self-described improvement in ability to study,"adults with ADHD; person, ADHD, sodium valproate (50 mg) added to psycho stimulant",50%
same,clinical outcome (case),"adults with ADHD; person, 100 mg sodium valproate added to methylphenidate 55 mg","enhanced ability to maintain conversation, improved cognition, improved assertiveness and self organisation"
same,clinical outcome (case),"adults with ADHD; person, sodium valproate (up to 500 mg a day) added to dexamphetamine 20 mg",Further benefit
same,clinical outcome (case),"adults with ADHD; person, sodium valproate maximum 400 mg added to dexamphetamine",good effect
same,clinical outcome (case),"adults with ADHD; person, valproate dose reached 150 mg, with psycho stimulant",benefits were lost
same,dose range in which control of symptoms of mania occurs,"[5]; mania (e.g. bipolar disorder), Epilim product information (Sanofi-Aventis)","1,000 to 2,000 mg/day"
same,dose range in which control of symptoms of mania occurs,"[5]; mania, Epilim product information",20 to 30 mg/kg/day
same,clinical outcome (case),"[6]; ADHD, dexamphetamine 25 mg daily augmented with atomexetine 60 mg and sodium valproate 150 mg",Significant improvement in psychosocial functioning
same,clinical outcome (case),[6]; Sodium valproate 50 mg increased to 100 mg with stimulant,"improved coordination, improved school attendance, improved cognition and report grades"
